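Briefly, cells in 96-well plates were exposed to five compound concentrations for 48 h, and endpoints were estimated by linear interpolation. GI50 is the concentration that inhibits growth by half.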 Calls of active or inactive are those of the source. No stated cut-off is given here; in the data, active = GI50 up to about 1.1 µM and inactive = higher.
Assays:
Assay in all cases: inhibition of tumour cell growth, NCI panel, 48 h
[1] = system: T47D
[2] = system: NCI-H226
[3] = system: K562
[4] = system: PC-3
[5] = system: SK-MEL-5
[6] = system: Hs-578T
[7] = system: EKVX
[8] = system: KM12
[9] = system: OVCAR-3
[10] = system: SK-MEL-2
[11] = system: ACHN
[12] = system: M14
[13] = system: HL-60
[14] = system: BT-549
[15] = system: SW-620
[16] = system: COLO 205
[17] = system: SNB-75
[18] = system: SN12C
[19] = system: HT-29
[20] = system: U-251

Structure (SMILES)	GI50 [1]	GI50 [2]	GI50 [3]	GI50 [4]	GI50 [5]	GI50 [6]	GI50 [7]	GI50 [8]	GI50 [9]	GI50 [10]	GI50 [11]	GI50 [12]	GI50 [13]	GI50 [14]	GI50 [15]	GI50 [16]	GI50 [17]	GI50 [18]	GI50 [19]	GI50 [20]
Clc1ccc(Cc2nc3ccccc3nc2-c2cccc(Br)c2)cc1	1.87 µM (inactive)	16.9 µM (inactive)	2.8 µM (inactive)	1.92 µM (inactive)	13.9 µM (inactive)	1.69 µM (inactive)	15.1 µM (inactive)	8.59 µM (inactive)	2.33 µM (inactive)	4.67 µM (inactive)	1.91 µM (inactive)	2.32 µM (inactive)	2.84 µM (inactive)	3.5 µM (inactive)	2.04 µM (inactive)	3.17 µM (inactive)	20.4 µM (inactive)	3.1 µM (inactive)	2.5 µM (inactive)	7.41 µM (inactive)
O=C(O)c1c(-c2nccc3ccccc23)[nH]c(-c2ccccc2)c1S(=O)(=O)O	> 100 µM (inactive)	> 100 µM (inactive)	–	> 100 µM (inactive)	> 100 µM (inactive)	> 100 µM (inactive)	21.8 µM (inactive)	> 100 µM (inactive)	> 100 µM (inactive)	> 100 µM (inactive)	> 100 µM (inactive)	> 100 µM (inactive)	41.8 µM (inactive)	> 100 µM (inactive)	> 100 µM (inactive)	> 100 µM (inactive)	> 100 µM (inactive)	> 100 µM (inactive)	> 100 µM (inactive)	> 100 µM (inactive)
O=C(Nc1ccn(C2CCC(CO)O2)c(=O)n1)c1ccccc1 (stereo not given)	> 100 µM (inactive)	> 100 µM (inactive)	> 100 µM (inactive)	> 100 µM (inactive)	> 100 µM (inactive)	> 100 µM (inactive)	> 100 µM (inactive)	> 100 µM (inactive)	–	> 100 µM (inactive)	> 100 µM (inactive)	> 100 µM (inactive)	> 100 µM (inactive)	> 100 µM (inactive)	> 100 µM (inactive)	> 100 µM (inactive)	79.6 µM (inactive)	> 100 µM (inactive)	> 100 µM (inactive)	> 100 µM (inactive)
CC(C)C[C@H](NC(=O)[C@H](Cc1cccc2ccccc12)NC(=O)N1CCOCC1)B(O)O	< 0.01 µM (active)	0.000104 µM (active)	< 0.01 µM (active)	< 0.0108 µM (active)	0.001 µM (active)	< 0.01 µM (active)	0.0334 µM (active)	< 0.01 µM (active)	< 0.01 µM (active)	< 0.01 µM (active)	< 0.01 µM (active)	< 0.01 µM (active)	< 0.01 µM (active)	< 0.01 µM (active)	0.000776 µM (active)	0.0122 µM (active)	< 0.01 µM (active)	< 0.01 µM (active)	< 0.01 µM (active)	< 0.01 µM (active)
CCC1(O)C(=O)OCc2c1cc1n(c2=O)Cc2cc3ccccc3nc2-1 (stereo not given)	0.0237 µM (active)	0.277 µM (active)	0.0455 µM (active)	2.03 µM (inactive)	0.0473 µM (active)	7.73 µM (inactive)	0.0869 µM (active)	0.221 µM (active)	0.308 µM (active)	0.575 µM (active)	0.153 µM (active)	< 0.01 µM (active)	0.017 µM (active)	0.211 µM (active)	0.167 µM (active)	0.101 µM (active)	< 0.0215 µM (active)	0.0703 µM (active)	0.0653 µM (active)	0.0261 µM (active)
CCCCCCN(CCCCCC)C(=S)N/N=C(\C)c1ccccn1	0.269 µM (active)	0.622 µM (active)	0.105 µM (active)	0.265 µM (active)	1.03 µM (active)	1.09 µM (active)	0.531 µM (active)	1.05 µM (active)	0.506 µM (active)	1.06 µM (active)	0.703 µM (active)	0.76 µM (active)	0.0767 µM (active)	1.68 µM (inactive)	0.718 µM (active)	0.321 µM (active)	0.577 µM (active)	0.957 µM (active)	1.51 µM (inactive)	0.393 µM (active)
CC(C)(C)NC(=S)N/N=C/c1ccccn1	< 0.01 µM (active)	1 µM (active)	< 0.01 µM (active)	< 0.0164 µM (active)	0.409 µM (active)	> 32.2 µM (inactive)	0.0596 µM (active)	1.94 µM (inactive)	< 0.0155 µM (active)	0.724 µM (active)	< 0.0237 µM (active)	0.0851 µM (active)	< 0.01 µM (active)	18.3 µM (inactive)	< 0.0113 µM (active)	< 0.01 µM (active)	> 100 µM (inactive)	3.16 µM (inactive)	< 0.0452 µM (active)	0.357 µM (active)
O=C1CCC(=O)N1n1c(Cc2ccc(Cl)cc2)n[nH]c1=O	> 100 µM (inactive)	> 100 µM (inactive)	> 100 µM (inactive)	> 100 µM (inactive)	> 100 µM (inactive)	> 100 µM (inactive)	> 100 µM (inactive)	> 100 µM (inactive)	> 100 µM (inactive)	> 100 µM (inactive)	> 100 µM (inactive)	> 100 µM (inactive)	> 100 µM (inactive)	> 100 µM (inactive)	> 100 µM (inactive)	> 100 µM (inactive)	–	> 100 µM (inactive)	> 100 µM (inactive)	> 100 µM (inactive)
CCOC(=O)C1=C(C)NC(C)=C(C(=O)OCC)C1c1ccc(Cl)cc1	15.6 µM (inactive)	–	9.91 µM (inactive)	14.9 µM (inactive)	13.7 µM (inactive)	19.6 µM (inactive)	16.8 µM (inactive)	17.5 µM (inactive)	15.8 µM (inactive)	18.7 µM (inactive)	16 µM (inactive)	16.6 µM (inactive)	0.774 µM (active)	17.1 µM (inactive)	16.3 µM (inactive)	16.3 µM (inactive)	18.7 µM (inactive)	19.4 µM (inactive)	10.9 µM (inactive)	16.8 µM (inactive)
O=[N+]([O-])c1cc(Cl)cc2c1nc(NCCO)c1ccccc12	20.3 µM (inactive)	13.5 µM (inactive)	4.39 µM (inactive)	4.97 µM (inactive)	1.35 µM (inactive)	28.9 µM (inactive)	6.21 µM (inactive)	9.53 µM (inactive)	12.1 µM (inactive)	10.5 µM (inactive)	6.43 µM (inactive)	8.45 µM (inactive)	3.5 µM (inactive)	15.4 µM (inactive)	4.5 µM (inactive)	0.0435 µM (active)	20.4 µM (inactive)	6.17 µM (inactive)	0.063 µM (active)	6.64 µM (inactive)
CC(C(=O)NCNC(=O)c1ccccc1)C(=O)NCc1ccccc1 (stereo not given)	> 100 µM (inactive)	> 100 µM (inactive)	–	> 100 µM (inactive)	> 100 µM (inactive)	> 100 µM (inactive)	> 100 µM (inactive)	> 100 µM (inactive)	–	> 100 µM (inactive)	> 100 µM (inactive)	> 100 µM (inactive)	> 100 µM (inactive)	> 100 µM (inactive)	> 100 µM (inactive)	> 100 µM (inactive)	> 100 µM (inactive)	> 100 µM (inactive)	> 100 µM (inactive)	> 100 µM (inactive)
Nc1ccc2nc3c(nc2c1)C(=O)c1ccccc1-3	> 100 µM (inactive)	29 µM (inactive)	> 100 µM (inactive)	> 100 µM (inactive)	> 100 µM (inactive)	> 100 µM (inactive)	> 100 µM (inactive)	> 100 µM (inactive)	> 100 µM (inactive)	–	> 100 µM (inactive)	> 100 µM (inactive)	> 100 µM (inactive)	> 100 µM (inactive)	> 100 µM (inactive)	> 100 µM (inactive)	> 100 µM (inactive)	> 100 µM (inactive)	> 100 µM (inactive)	> 100 µM (inactive)
Cc1ccc(-c2n[nH]c(=O)n2N2C(=O)C=CC2=O)cc1	> 100 µM (inactive)	> 100 µM (inactive)	> 100 µM (inactive)	> 100 µM (inactive)	> 100 µM (inactive)	> 100 µM (inactive)	> 100 µM (inactive)	–	> 100 µM (inactive)	> 100 µM (inactive)	–	> 100 µM (inactive)	> 100 µM (inactive)	> 100 µM (inactive)	–	> 100 µM (inactive)	–	> 100 µM (inactive)	> 100 µM (inactive)	> 100 µM (inactive)
c1ccc(-c2nc(-c3ccccc3SSc3ccccc3-c3nc(-c4ccccc4)nn3-c3ccccc3)n(-c3ccccc3)n2)cc1	> 100 µM (inactive)	> 100 µM (inactive)	> 100 µM (inactive)	> 100 µM (inactive)	–	> 100 µM (inactive)	> 100 µM (inactive)	> 100 µM (inactive)	> 100 µM (inactive)	–	> 100 µM (inactive)	> 100 µM (inactive)	> 100 µM (inactive)	> 100 µM (inactive)	> 100 µM (inactive)	> 100 µM (inactive)	> 100 µM (inactive)	> 100 µM (inactive)	–	> 100 µM (inactive)
CCN(CC)N1C(=O)[N-][N+](CC)(CC)C1=O	> 100 µM (inactive)	> 100 µM (inactive)	–	> 100 µM (inactive)	> 100 µM (inactive)	> 100 µM (inactive)	> 100 µM (inactive)	> 100 µM (inactive)	> 100 µM (inactive)	> 100 µM (inactive)	> 100 µM (inactive)	> 100 µM (inactive)	> 100 µM (inactive)	> 100 µM (inactive)	> 100 µM (inactive)	71.1 µM (inactive)	> 100 µM (inactive)	> 100 µM (inactive)	> 100 µM (inactive)	> 100 µM (inactive)

— ChEMBL document CHEMBL1201862, “PubChem BioAssay data set” (2004)
